Results from patent US20250367170A1, “TOPICAL ANGIOTENSIN II RECEPTOR BLOCKERS (ARBS) FOR TREATING EYE CONDITIONS” (The Cleveland Clinic Foundation, priority 2022, published 2025).

Legend:
[1] = test system: rabbit corneas after -9D PRK; test: Slit lamp central opacity (ImageJ) one month after -9D PRK; format: in vivo, New Zealand white rabbits; conditions: topical 0.2 mg/ml six times a day, vehicle 93±6
Description: Animal procedures were approved by the Institutional Animal Care and Use Committee at the Cleveland Clinic Foundation and animals were treated in accordance with the tenets of the Association for Research in Vision and Ophthalmology Statement for the Use of Animals in Ophthalmic and Vision Research. Twelve female 12- to 15-week-old New Zealand white rabbits weighing 2.5 to 3 kg each were included. Starting 24 hours prior to surgery and continuing 5 days after PRK, all rabbits received 60 mL children's liquid acetaminophen (Johnson & Johnson, Ft. Washington, PA, USA) per 1 L of drinking water. One eye of each rabbit was randomly selected to have −9.0 D (on myopia scale) PRK and received 2 drops of topical 1% proparacaine hydrochloride (Alcon, Fort Worth, TX, USA) prior to the surgery. […]
At 1 month after PRK and treatment, each rabbit was placed under ketamine-xylazine general anesthesia and the eyes were dilated with two drops of 1% tropicamide (Akorn Co., Lake Forest, IL, USA) for 30 minutes. […] For each study cornea, the mean opacity in pixels in the central 3.5 mm of the PRK ablated zone was determined by using ImageJ 1.53a analysis software (National Institutes of Health, Bethesda, MD, USA).

collagen type IV = test: IHC collagen type IV intensity in anterior and posterior stroma after alkali burn; format: in vivo, New Zealand White rabbits; conditions: one month
Description: Multiplex immunohistochemistry (IHC) was performed using previously described methods^8 and primary antibodies (Table 7) confirmed by western blotting and IHC to recognize rabbit antigens or isotypic control antibodies (Thermo Fisher Scientific, Waltham, MA), and secondary fluorescent tagged antibodies (Table 7). The collagen type IV antibody (Cat. #AB769, Millipore, Temecula CA) was raised against purified human and bovine collagen type IV that had been affinity purified with human and bovine collagen type IV crosslinked to agarose and cross-absorbed by the manufacturer with human and bovine collagens type I, II, III, V and VI to eliminate cross-reactivity. This collagen type IV antibody was shown previously to bind rabbit collagen IV in IHC,^8,9 and recognizes the alpha-1/alpha-2 chains but not the alpha-3 to alpha-6 chains. The keratocan antibody is raised against peptide […]-OH (SEQ ID NO:1). This marker was used to identify keratocytes in situ. […] All corneas in each group had IHC for collagen type IV. Images from each cornea were converted to uniform 300 DPI, 875×568 pixel, files. […] The staining intensity within each box was determined with the analyze histogram function and the mean of three boxes was the intensity value in the anterior or posterior stroma for that cornea.

[2] = test system: α-SMA-positive myofibroblasts; test: IHC for α-SMA-positive myofibroblasts, area and intensity (ImageJ) after alkali burn; format: in vivo, New Zealand White rabbits; conditions: one month
Description: One month after exposure and topical treatment, rabbits were euthanized after ketamine-xylazine general anesthesia with 100 mg/kg Beuthanasia (Shering-Plough, Kenilworth, NJ) by intravenous injection and bilateral pneumothorax. The corneo-scleral rims of eyes were removed with sharp Westcott scissors (Fairfield, CT, USA) and 0.12 forceps (Storz, St. Louis, MO). The cornea was centered in a 24×24×5 mm mold (Fisher Scientific, Pittsburgh, PA, USA) that was filled with OCT compound (Sakura Finetek, Torrance, CA, USA) and quick frozen on dry ice. Blocks were stored at −80° C. until sectioning. […]
The area of the α-SMA-positive stroma in mm^2 and the total α-SMA opacity in pixels were quantitated using standardized images obtained with a 10× objective on a Leica DM6B upright microscope equipped with an automated stage and Leica 7000 T camera using the LAS X software (Leica Microsystems, GmbH, Wetzlar, Germany). The means of three central corneal sections were analyzed from each cornea to provide the area of α-SMA-positive stroma and the total α-SMA opacity. […] In these same sections for each cornea, the total α-SMA-positive intensity in pixels was also determined with ImageJ, similarly by using the summation if separate α-SMA-positive areas were present.

## CCCCc1nc(Cl)c(CO)n1Cc1ccc(-c2ccccc2-c2nn[nH]n2)cc1 [losartan]
[1]
  mean pixels of opacity within the central 3.5 mm diameter area (mean±SEM): 77±3 pixels
Collagen type IV
  COL IV staining intensity in the posterior stroma vs vehicle: significantly different
  mean intensity units of collagen type IV in the anterior stroma vs vehicle: significantly decreased
[2]
  total α-SMA area vs vehicle control group: trend towards the losartan group being significantly different
